# Measured values as given in patent US20220251081A1, “HETEROBICYCLIC INHIBITORS OF MAT2A AND METHODS OF USE FOR TREATING CANCER” (priority 2019, published 2022).
# Tests used:
# [1] = system: SAM in HCT116 human colon carcinoma cell line with deleted MTAP gene; assay: Cellular assay of target engagement (SAM): SAM level by LC-MS/MS after 72 hrs; format: cell-based; settings: HCT-116, IC50 score, read-out: Cell 72 h SAM Inhibition (MTAP −/−)
# Description: Cellular Assay of Target Engagement (SAM)
# Measurement of MAT2A activity in cells was made by direct quantitation of the abundance of the product of its enzymatic activity, SAM. Cancer cells were treated with candidate MAT2A inhibitors for a suitable incubation period, and the cells were then lysed using a reagent which quenched any further enzyme activity. Soluble metabolites including SAM were collected and SAM itself was directly measured from the lysate using quantitative LC-MS/MS.
# A typical assay was performed using an HCT116 human colon carcinoma cell line which was genetically engineered to delete the MTAP gene (commercially available from Horizon Discovery). This cell line was utilized because it was determined that loss of the MTAP gene predicts sensitivity to MAT2A inhibitors. Cells were plated in 96-well dishes at appropriate cell density. Following 24 hours, cells were then treated with the candidate MAT2A inhibitor. Prior to addition to cells, the compound was first serially diluted in 100% DMSO, typically as a 3-fold serial dilution starting at 500× top dose with 10 dose points including DMSO only control. Compound was then transferred to a working stock plate in cell culture media by adding 5 μL of compound in DMSO to 495 μL of cell culture media. This working stock was then added to cells via a further 5-fold dilution, by adding 25 μL of working stock to 100 μL of cells in culture media. Following compound addition, cells were incubated at 37° C./5% CO2 for 72 hrs.
# To quantitate SAM levels following compound treatment, cells were gently washed once in ammonium carbonate buffer (75 mM at pH 7.4), placed on dry ice, and lysed with metabolite extraction buffer (80% cold methanol and 20% water (v/v) with acetic acid at 1M final concentration with 200 ng/mL deuterated d3-SAM as internal control). Following centrifugation at 4° C. at 3,200 rpm for 30 minutes, the supernatant was collected and stored at −80° C. until analysis by Liquid Chromatography with tandem Mass Spectrometry (LC-MS/MS). LC-MS/MS analysis was performed using an API6500 Mass Spectrometer (Sciex, Framingham, Mass., USA) operating in positive ion spray mode and equipped with a Waters UPLC Acquity (Waters, Milford, Mass., USA) BEH Amide column. Multiple Reaction Monitoring data was acquired for SAM and the d3-SAM standard, using a mass transition pair at m/z 399.2→250.1 and 402.2→250.1, respectively. In a typical LC-MS/MS analysis, the initial flow rate was 0.5 ml/min of 25% mobile phase A (acetonitrile and water at 5:95 (v/v) with 1% formic acid and 10 mM ammonium acetate) and 75% mobile phase B (acetonitrile and water at 95:5 (v/v) with 1% formic acid and 10 mM ammonium acetate), 0.2-0.5 minutes with 75%-35% mobile phase B, 25%-65% mobile phase A, at 0.5 min 65% mobile phase A and 35% mobile phase B, 1.0-1.1 minutes with 35%-75% mobile phase B, 65%-25% mobile phase A, at 1.1 min 25% mobile phase A and 75% mobile phase B with a total run time of 1.5 minutes.
# [2] = system: HCT116 MTAP +/+; assay: Inhibition of cellular proliferation, 4 days, Cell Titer Glo, HCT116 MTAP+/+; format: cell-based; settings: Homo sapiens, HCT-116, 96 h, IC50 score, read-out: 4 Day Relative Growth Inhibition (MTAP +/+)
# Description: (§1) Assay for Inhibition of Cellular Proliferation
# (§2) Test compound impact on cancer cell growth was assessed by treating cancer cells with compound for 4 days and then measuring proliferation using an ATP-based cell proliferation readout (Cell Titer Glo, Promega Corporation).
# (§3) In a typical assay an isogenic pair of HCT116 human colon carcinoma cell lines which vary only in MTAP deletion status (HCT116 MTAP +/+ and HCT116 MTAP−/−) were plated in 96-well dishes at appropriate cell density. Following 24 hours, cells were then treated with the candidate MAT2A inhibitor. Prior to addition to cells, the compound was first serially diluted in 100% DMSO, typically as a 3-fold serial dilution starting at 500× top dose with 10 dose points including DMSO only control. Compound was then transferred to a working stock plate in cell culture media by adding 5 μL of compound in DMSO to 495 μL of cell culture media. This working stock was then added to cells via a further 5-fold dilution, by adding 25 μL of working stock to 100 μL of cells in culture media. Following compound addition, cells were incubated at 37° C./5% C02 for 4 days.
# (§4) To measure inhibition of cellular proliferation, cells were allowed to equilibrate to room temperature for 30 minutes, and were then treated with 125 μL of Cell Titer Glo reagent. The plate was then covered with aluminum foil and shaken for 15 minutes to ensure complete mixing and full cell lysis. Luminescent signal was then measured using a plate-based luminometer Veritas version 1.9.2 using ATP standard curve to confirm assay reproducibility from run to run. This luminescence measure was converted to a proliferation index by subtracting from each data point the ATP luminescence signal measured from a bank (no cells) well and dividing by the ATP luminescence signal measured in 0.2% DMSO control well adjusted for signal in blank well. Compound activity was then represented as a percentage change in proliferation relative to a within-plate DMSO control against log 10 of compound concentration in molar (M) units.
# [3] = target: T1, MAT2A homodimer (Homo sapiens, UniProt P31153); assay: Biochemical assay: inhibition of recombinant MAT2A homodimer (phosphate release, PiColorLock Gold); settings: MAT2A IC50 score; read-out: Enzyme Inhibition
# T1 construct: inferred from Ni sepharose purification and imidazole elution; made in house; host or cells: Sf9 insect cells, recombinant baculovirus (Bac to Bac, pFASTBAC1 vector)
# Method in brief: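 Baculovirus/Sf9-expressed, Ni-purified MAT2A at 4 μg/mL in pH 8.0 Tris/KCl/MgCl2/EDTA/BSA buffer, preincubated with compound 60 min at 25 °C. Started with ATP and L-methionine substrate mix (500 μM and 40 μM, stock in mix), 60 min at 25 °C; released phosphate by PiColorLock Gold against a phosphate standard curve.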
# [4] = system: HCT116 MTAP-/-; assay: Inhibition of cellular proliferation, 4 days, Cell Titer Glo, HCT116 MTAP-/-; format: cell-based; settings: Homo sapiens, HCT-116, 96 h, IC50 score, read-out: 4 Day Relative Growth Inhibition (MTAP −/−)
# Description: as §1, §2, §3, §4
# T1 sequence (P31153 whole entry): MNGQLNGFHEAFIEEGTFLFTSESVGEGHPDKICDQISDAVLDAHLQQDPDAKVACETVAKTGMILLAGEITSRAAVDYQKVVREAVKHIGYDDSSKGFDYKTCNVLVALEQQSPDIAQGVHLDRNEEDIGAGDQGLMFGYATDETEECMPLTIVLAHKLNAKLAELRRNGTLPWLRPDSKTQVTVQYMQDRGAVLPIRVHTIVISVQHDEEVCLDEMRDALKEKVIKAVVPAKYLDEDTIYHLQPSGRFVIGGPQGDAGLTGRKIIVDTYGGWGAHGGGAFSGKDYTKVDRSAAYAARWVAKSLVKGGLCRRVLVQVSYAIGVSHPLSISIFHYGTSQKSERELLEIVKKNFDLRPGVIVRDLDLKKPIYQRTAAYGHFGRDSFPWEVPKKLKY
SMILES,IC50 [1] [nM],IC50 [2] [nM],IC50 [3] [nM],IC50 [4] [nM]
"CCOc1ccc2cc(-c3ccc4nn(C)cc4c3)c(=O)n(-c3ccc(C(F)(F)F)nc3)c2n1 [Example 151, 7-ethoxy-3-(2-methyl-2H-indazol-5-yl)-1-(6-(trifluoromethyl)pyridin-3-yl)-1,8-naphthyridin-2(1H)-one]",< 100,≥ 1000,< 100,< 100
CCOc1ccc2cc(-c3ccc4nn(C)cc4c3)c(=O)n(-c3ccc(OC(F)(F)F)nc3)c2n1 [Example 152],< 100,≥ 1000,< 100,< 100
CCOc1ccc2cc(-c3ccc4nn(C)cc4c3)c(=O)n(-c3ccc(OC(F)(F)F)cc3)c2n1 [Example 153],< 100,≥ 1000,< 100,< 100
CCOc1ccc2cc(-c3ccc4nn(C)cc4c3)c(=O)n(-c3ccc(OC(F)F)nc3)c2n1 [Example 155],< 100,≥ 1000,< 100,< 100
CCOc1ccc2cc(-c3ccc4nn(C)cc4c3)c(=O)n(-c3ccc(OC)nc3)c2n1 [Example 157],< 100,100 to 1000,< 100,< 100
CCOc1ccc2cc(-c3ccc(OC)cc3)c(=O)n(-c3ccc(OC(F)F)nc3)c2n1 [Example 158],100 to 1000,≥ 1000,< 100,100 to 1000
CCOc1ccc2cc(-c3ccc(OC)cc3)c(=O)n(-c3ccc(NC)nc3)c2n1 [Example 159],< 100,≥ 1000,< 100,100 to 1000
CCOc1ccc2cc(-c3ccc4ncccc4c3)c(=O)n(-c3ccc(Cl)cc3)c2n1 [Example 160],< 100,≥ 1000,< 100,100 to 1000
CCOc1ccc2cc(-c3ccc4nn(C)cc4c3)c(=O)n(-c3ccc(C4CC4)nc3)c2n1 [Example 161],< 100,100 to 1000,< 100,< 100
CCOc1ccc2cc(-c3ccc(OC)cc3)c(=O)n(-c3ccc(C4CC4)nc3)c2n1 [Example 162],100 to 1000,≥ 1000,< 100,100 to 1000
CCOc1ccc2cc(-c3ccc(OC)cc3)c(=O)n(-c3ccc(C4CC4)cc3)c2n1 [Example 163],100 to 1000,≥ 1000,< 100,100 to 1000
CCOc1cc(C)c2cc(-c3ccc4nn(C)cc4c3)c(=O)n(-c3ccc(Cl)cc3)c2n1 [Example 164],< 100,≥ 1000,< 100,< 100
CCOc1ccc2cc(-c3ccc4nn(C)cc4c3)c(=O)n(-c3ccc(C4CC4)cc3)c2n1 [Example 165],< 100,≥ 1000,< 100,< 100
Cn1cc2cc(-c3cc4ccc(OCC(F)(F)F)nc4n(-c4ccc(C5CC5)nc4)c3=O)ccc2n1 [Example 166],< 100,≥ 1000,< 100,< 100
CNc1ccc(-n2c(=O)c(-c3ccc4nn(C)cc4c3)cc3ccc(OCC(F)(F)F)nc32)cn1 [Example 167],< 100,≥ 1000,< 100,< 100
Cn1cc2cc(-c3cc4ccc(OCC(F)F)nc4n(-c4ccc(C5CC5)nc4)c3=O)ccc2n1 [Example 168],< 100,≥ 1000,< 100,< 100
Cn1cc2cc(-c3cc4ccc(OCC(F)F)nc4n(-c4ccc5scnc5c4)c3=O)ccc2n1 [Example 169],< 100,≥ 1000,< 100,100 to 1000
COc1ccc(-n2c(=O)c(-c3ccc(OC)nc3)cc3cnc(NCC(F)(F)F)nc32)cc1 [Example 171],100 to 1000,≥ 1000,< 100,≥ 1000
COc1ccc(-n2c(=O)c(-c3ccc4nccn4c3)cc3cnc(NCC(F)(F)F)nc32)cc1 [Example 172],< 100,≥ 1000,< 100,100 to 1000
COc1ccc(-n2c(=O)c(-c3ccc4c(c3)CCO4)cc3cnc(NCC(F)(F)F)nc32)cc1 [Example 173],< 100,≥ 1000,< 100,< 100
COc1ccc(-n2c(=O)c(-c3ccc4[nH]cnc4c3)cc3cnc(NCC(F)(F)F)nc32)cc1 [Example 174],< 100,≥ 1000,< 100,≥ 1000
COc1ccc(-n2c(=O)c(-c3ccc4ncncc4c3)cc3cnc(NCC(F)(F)F)nc32)cc1 [Example 176],< 100,100 to 1000,< 100,< 100
COc1ccc(-n2c(=O)c(-c3ccc4c(c3)OCO4)cc3cnc(NCC(F)(F)F)nc32)cc1 [Example 177],< 100,≥ 1000,< 100,≥ 1000
